In publication PMC9112407 (RSC Advances, 2022):

Experiments:
MCF-7 = test: In vitro anti-proliferative activity, MTT assay; assay type: cell-based; settings: Homo sapiens, MCF7, 48 h, read-out: In vitro IC50 (nM) Mean ± SD MCF-7
CDK2/cyclin A2 = CDK2/cyclin A2 (Homo sapiens, UniProt P24941); test: CDK2/cyclin A2 Kinase-Glo Plus luminescence kinase assay

Structure (SMILES)	IC50 (MCF-7) [nM]	IC50 (CDK2/cyclin A2) [nM]
Cc1ccc(NCC(=O)n2ncc3c2ncn2nc(SCC#N)nc32)cc1 [Compound 8, 2-((7-(p-Tolylglycyl)-7H-pyrazolo[4,3-e][1,2,4]triazolo[1,5-c]pyrimidin-2-yl)thio)acetonitrile]	53 ± 2.7	589 ± 33
COC(CSc1nc2c3cnn(C(=O)CNc4ccc(C)cc4)c3ncn2n1)OC [Compound 9, 1-(2-((2,2-Dimethoxyethyl)thio)-7H-pyrazolo[4,3-e][1,2,4]triazolo[1,5-c]pyrimidin-7-yl)-2-(p-tolylamino)ethan-1-one]	95 ± 4	
Cc1ccc(NCC(=O)n2ncc3c2ncn2nc(SCC(O)CO)nc32)cc1 (stereo not shown) [Compound 10, 1-{2-[(2,3-Dihydroxypropyl)thio]-7H-pyrazolo[4,3-e][1,2,4]triazolo[1,5-c]pyrimidin-7-yl}-2-(p-tolylamino)ethan-1-one]	53 ± 2.1	336 ± 19
CC(=O)OCCSc1nc2c3cnn(C(=O)CNc4ccc(C)cc4)c3ncn2n1 [Compound 13, 2-((7-(p-Tolylglycyl)-7H-pyrazolo[4,3-e][1,2,4]triazolo[1,5-c]pyrimidin-2-yl)thio)ethyl acetate]	59 ± 0.94	81 ± 4

Results, then the molecule that gave them:

IC50 (MCF-7) [nM]	IC50 (CDK2/cyclin A2) [nM]	Structure (SMILES)
79 ± 1.4		Cc1ccc(NCC(=O)n2ncc3c(=N)n(N)cnc32)cc1 [Compound 4, 1-(5-Amino-4-imino-4,5-dihydro-1H-pyrazolo[3,4-d]pyrimidin-1-yl)-2-(p-tolylamino)ethan-1-one]
88 ± 0.99	1020 ± 57	Cc1ccc(NCC(=O)n2ncc3c(=N)n(N[C@@H]4O[C@H](CO)[C@@H](O)[C@H](O)[C@H]4O)cnc32)cc1 [Compound 5, 1-(4-Imino-5-((β-D-glucopyranosyl)amino)-4,5-dihydro-1H-pyrazolo[3,4-d]pyrimidin-1-yl)-2-(p-tolylamino)ethan-1-one]
552 ± 23		Cc1ccc(NCC(=O)n2ncc3c(=N)n(N[C@@H]4OC[C@@H](O)[C@H](O)[C@H]4O)cnc32)cc1 [Compound 6, 1-(4-Imino-5-((β-D-xylopyranosyl)amino)-4,5-dihydro-1H-pyrazolo[3,4-d]pyrimidin-1-yl)-2-(p-tolylamino)ethan-1-one]
951 ± 33		Cc1ccc(NCC(=O)n2ncc3c2ncn2[nH]c(=S)nc32)cc1 [Compound 7, 1-(2-Thioxo-2,3-dihydro-7H-pyrazolo[4,3-e][1,2,4]triazolo[1,5-c]pyrimidin-7-yl)-2-(p-tolylamino)ethan-1-one]
91 ± 4.2	3650 ± 203	CC(=O)OCC(CSc1nc2c3cnn(C(=O)CNc4ccc(C)cc4)c3ncn2n1)OC(C)=O (stereo not shown) [Compound 11, 3-((7-(p-Tolylglycyl)-7H-pyrazolo[4,3-e][1,2,4]triazolo[1,5-c]pyrimidin-2-yl)thio)propane-1,2-diyl diacetate]
97 ± 1.7		Cc1ccc(NCC(=O)n2ncc3c2ncn2nc(SCCO)nc32)cc1 [Compound 12, 1-(2-((2-Hydroxyethyl)thio)-7H-pyrazolo[4,3-e][1,2,4]triazolo[1,5-c]pyrimidin-7-yl)-2-(p-tolylamino)ethan-1-one]
144 ± 0.47		CNC(=O)c1cc(Oc2ccc(NC(=O)Nc3ccc(Cl)c(C(F)(F)F)c3)cc2)ccn1 [Sorafenib, reference compound]
